Laboratory results reported in patent US11472807B2, “Purine derivatives for use as medicament and for use in treating neurodegenerative or neuro-inflammatory disorders” (COMMISSARIAT À L'ENERGIE ATOMIQUE ET AUX ENERGIES …, priority 2017, dated 2022).

Legend:
[1] = Brain and plasma exposure after chronic subcutaneous administration (Alzet osmotic pump); type: in vivo, C57Bl/6J mice; conditions: C57Bl/6J, mouse, sc, 30 mg/kg, 28 days, mice, read-out: brain/plasma partition coefficient (Kpbrain/plasma)
Experimental: FIG. 5. Plots illustrating the effect of brain and plasma exposure after chronic subcutaneous administration of Aftin-5 to C57B16J mice. Due to short Aftin-5 elimination half-time, C57B1/6J mice were exposed subcutaneously to Aftin-5 (30 mg/kg) or vehicle (DMSO/PEG) during 28 days through an Alzet osmotic pump (pump 1004, Q=0.14 μL/hrs). Plasma was collected at different time points and 28 days after, both brain tissue and plasma were collected. Aftin-5 were extracted and quantified by LC-MS/MS (Quattro Premier). Aftin-5 concentrations in plasma (A) and brain (B) were expressed in nM. Data expressed as means+/−SEM from one experiment with n=4-5 mice/condition.
(§1) C57B1 were exposed subcutaneously to Aftin-5 using osmotic minipumps ([…]; Saint-Germain-Nuelles, France). Aftin-5 was dissolved in DMSO:propylene glycol:ethanol (45:45:10). Mice were treated with 1, 3 or 30 mg/Kg for 28 days. Filled pumps were left in saline overnight at 37° C. for priming. Mice were anesthetized with isoflurane (3-4% v/v, 1.5 mL/min) in an induction chamber and maintained under anesthesia through a mask. Mice were shaved on their back, disinfected and an incision made between the scapulae for pump implantation and finally closed with clips. 1% lidocaine gel was applied over the incision for local analgesia. Animals recovered from anesthesia in heated pads and immediately returned to the cages.

[2] = system: aggregates of β-pleated sheets; assay: Thioflavin-S immunohistochemistry of total brain tissue of treated mice; type: in vivo; conditions: mice treated during 28 days
Experimental: as §1
Immunohistochemistry assay was conducted with the total brain tissue, from mice treated with Aftin-5 during 28 days, in the presence of Thioflavin-S dye, which binds aggregates of β-pleated sheets.

[3] = system: Thr231 phosphorylated Tau; assay: Tau phosphorylation (Thr231) in neuronal primary cultures (MSD); type: cell-based, mice; conditions: neurons, 50 μM, 100 μM and 150 μM for 18 h
Experimental: FIG. 7. Plots illustrating the effect of Aftin-5 mediated attenuation of Tau phosphorylation in neuronal primary cultures. Culture media of cortical neurons were replaced by incubation medium containing Aftin-5 at 100 μM (A100) or 150 μM (A150) or vehicle (0.1% DMSO; Control). After 18 h incubation pTau (Thr231) and total Tau were quantified by sandwich immunoassay using the Meso Scale Discovery technology. Different Tau concentrations were expressed versus total proteins concentration. Kruskal-Wallis test and Dunn's Multiple Comparison post-hoc tests were performed and ***p<0.001 indicates significant differences between Aftin-5 and control conditions. Data expressed as means+/−SEM (n=6 wells/condition).
Hippocampi and cortex were dissected in HBSS containing 5 mM glucose (dissection medium). […] Cells were counted and seeded at a density of 22,000 per cm^2 for hippocampal neurons and 10^5 per cm^2 for cortical neurons into 24 wells culture plates (Costar) in plating medium (DMEM medium containing 10% heat-inactivated horse serum (Life Technologies)). […]
Tau and P-Tau in primary rat neurons, organotypic hippocampal slice cultures from wild type (WT) and transgenic Tau mice (3 Tg) after by Aftin-5. Tau was quantified by sandwich immunoassay using the Meso Scale Discovery technologies. […] After a short incubation (5 min) at room temperature, the plate is read on the SECTOR Imager 2400. […]

Kp at 672 h [1]: ~0.44
aggregates of β-pleated sheets (Thioflavin-S binding) [2]: absence
SMILES: CC[C@H](CO)Nc1nc(N(C)c2ccccc2)c2ncn(C(C)C)c2n1 [Aftin-5]
Thr231 phosphorylated Tau protein [3]: significant dose dependent decrease
